Measured values reported in the supplement of paper PMC10307832.

Experiments:
Assay in all cases: relative viability (nuclei count vs DMSO), 5 days (fraction); higher = more cells survive
GSK-J4 + Foretinib = compound: CCOC(=O)CCNc1cc(N2CCc3ccccc3CC2)nc(-c2ccccn2)n1 [GSK-J4] + COc1cc2c(Oc3ccc(NC(=O)C4(C(=O)Nc5ccc(F)cc5)CC4)cc3F)ccnc2cc1OCCCN1CCOCC1 [Foretinib] (partner 0.25 µM)
Summary of the method: (§1)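 A single step with final 0.05% Triton X-100, 1% formaldehyde and 1 ug/ml Hoechst fixed the cells and stained nuclei 5 days after treatment. Lung cancer cell lines in 1536-well plates had been treated by pin tool the day after seeding with one drug alone or a fixed anchor-drug dose plus five library-drug doses (not always all listed) in √10 steps, and nuclei were counted on 4× images. Relative viability is the ratio of nuclei in treated wells to nuclei in vehicle wells, taken as the median of duplicate plates.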

GSK-J4 + Navitoclax = compound: CCOC(=O)CCNc1cc(N2CCc3ccccc3CC2)nc(-c2ccccn2)n1 [GSK-J4] + CC1(C)CCC(c2ccc(Cl)cc2)=C(CN2CCN(c3ccc(C(=O)NS(=O)(=O)c4ccc(N[C@H](CCN5CCOCC5)CSc5ccccc5)c(S(=O)(=O)C(F)(F)F)c4)cc3)CC2)C1 [Navitoclax] (partner 0.5 µM)
Summary of the method: as §1

AZ3146 = compound: CN1CCC(CC1)OC2=CC(=C(C=C2)NC3=NC=C4C(=N3)N(C(=O)N4C)C5CCCC5)OC [AZ3146]
Summary of the method: (§2)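 Hoechst staining, done together with fixation and permeabilisation, marked nuclei for 4× imaging and MetaXpress counting. This followed 5 days without medium change after lung cancer cell lines, kept overnight at 37 °C in 1536-well plates, were pinned with five library-drug doses (not always all listed) spaced by √10 on vehicle-anchored plates. Viability is the ratio of treated-well to vehicle-well nuclei, expressed as a median across plates. Plates passed only at control CV below 25% with at least one doubling.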

GSK-J4 = compound: CCOC(=O)CCNc1cc(N2CCc3ccccc3CC2)nc(-c2ccccn2)n1 [GSK-J4]
Summary of the method: as §2

Cell Line | relative viability (GSK-J4 + Foretinib; first compound 0.5 µM) | relative viability (GSK-J4 + Foretinib; first compound 1.581 µM) | relative viability (GSK-J4 + Foretinib; first compound 5 µM) | relative viability (GSK-J4 + Foretinib; first compound 15.81 µM) | relative viability (GSK-J4 + Foretinib; first compound 50 µM) | relative viability (GSK-J4 + Navitoclax; first compound 0.5 µM) | relative viability (GSK-J4 + Navitoclax; first compound 1.581 µM) | relative viability (GSK-J4 + Navitoclax; first compound 5 µM) | relative viability (GSK-J4 + Navitoclax; first compound 15.81 µM) | relative viability (GSK-J4 + Navitoclax; first compound 50 µM) | relative viability (AZ3146; 0.08 µM) | relative viability (AZ3146; 0.253 µM) | relative viability (AZ3146; 0.8 µM) | relative viability (AZ3146; 2.53 µM) | relative viability (AZ3146; 8 µM) | relative viability (GSK-J4; 0.5 µM) | relative viability (GSK-J4; 1.581 µM) | relative viability (GSK-J4; 5 µM) | relative viability (GSK-J4; 15.81 µM) | relative viability (GSK-J4; 50 µM)
HCC-827 | 1.02 | 1.07 | 1.05 | 0.955 | 0.847 | 1.02 | 0.991 | 1.06 | 1 | 0.994 | 1.04 | 0.998 | 0.987 | 0.939 | 1.04 | 1.01 | 0.902 | 0.839 | 1 | 1.02
IA-LM | 1.09 | 1.15 | 1.32 | 1.16 | 0.334 | 0.747 | 0.718 | 0.802 | 0.666 | 0.105 | 0.971 | 0.998 | 0.987 | 0.957 | 0.742 | 0.887 | 0.84 | 1.17 | 0.821 | 0.315
NCI-H1623 | 0.93 | 0.727 | 0.925 | 0.562 | 0.807 |  |  |  |  |  | 1.03 | 0.991 | 0.78 | 0.944 | 0.956 | 1.05 | 0.739 | 1.31 | 0.825 | 0.959
NCI-H3122 | 0.983 | 1.01 | 0.938 | 1.05 | 0.969 | 1.02 | 1 | 1.02 | 1.04 | 0.973 | 0.979 | 1 | 1.02 | 0.984 | 0.991 | 0.941 | 0.904 | 0.955 | 1.05 | 1.02
RERF-LC-KJ | 0.824 | 0.796 | 0.882 | 0.803 | 0.852 | 0.756 | 1.01 | 0.881 | 0.795 | 0.763 | 0.944 | 1.01 | 0.974 | 1.05 | 0.716 | 0.887 | 0.853 | 0.943 | 0.908 | 0.826
NCI-H1703 | 0.319 | 0.403 | 0.337 | 0.325 | 0.304 | 0.944 | 0.963 | 0.776 | 1.08 | 1.25 | 0.979 | 0.901 | 0.789 | 0.806 | 0.55 | 0.936 | 0.903 | 0.815 | 0.781 | 0.804
NCI-H1563 | 0.943 | 0.898 | 0.747 | 0.801 | 0.973 |  |  |  |  |  | 0.837 | 0.973 | 1.04 | 0.902 | 0.909 | 0.952 | 1.1 | 0.892 | 0.894 | 0.985
ABC-1 | 1.04 | 0.63 | 1.06 | 0.989 | 0.846 |  |  |  |  |  | 0.892 | 0.901 | 1.02 | 1.02 | 0.867 | 1.04 | 0.869 | 0.803 | 0.797 | 0.403
SW 900 | 0.681 | 0.836 | 1.05 | 0.591 | 0.431 |  |  |  |  |  | 0.77 | 0.669 | 0.751 | 1.01 | 0.686 | 0.803 | 0.794 | 0.842 | 0.863 | 0.64
NCI-H1648 |  |  |  |  |  |  |  |  |  |  |  | 0.654 | 0.924 | 0.921 | 1.03 | 0.992 |  | 1.47 | 0.496 | 0.807
HCC-44 |  |  |  |  |  | 0.973 | 0.91 | 1.08 | 0.817 | 0.898 | 0.969 | 0.917 | 1.09 | 1.02 | 0.89 | 1.01 | 0.864 | 0.861 | 1.02 | 1.01
NCI-H2342 | 1.02 | 1.02 | 1.11 | 1.01 | 1.11 |  |  |  |  |  | 0.902 | 0.937 | 1.11 | 0.875 | 0.928 | 0.919 | 1.06 | 0.925 | 1.03 | 1.07
NCI-H650 | 0.972 | 1.01 | 0.686 | 0.941 | 0.712 |  |  |  |  |  | 0.776 | 0.822 | 0.867 | 1.02 | 1.03 | 0.931 | 0.653 | 0.494 | 0.832 | 0.751
NCI-H522 |  |  |  |  |  |  |  |  |  |  | 0.917 | 0.943 | 0.926 | 0.899 | 0.938 | 1.06 | 0.746 | 0.789 | 0.75 | 0.559
LCLC-103H | 0.8 | 0.617 | 0.789 | 0.593 | 0.52 |  |  |  |  |  | 0.974 | 0.949 | 0.974 | 0.995 | 0.965 | 1.07 | 0.883 | 0.908 | 0.954 | 0.94
NCI-H661 | 0.983 | 0.995 | 0.86 | 0.969 | 0.805 |  |  |  |  |  | 1.02 | 0.988 | 0.92 | 0.98 | 1.05 | 0.969 | 0.922 | 0.904 | 0.927 | 0.723
NCI-H358 | 0.677 | 0.684 | 0.639 | 0.616 | 0.631 |  |  |  |  |  | 0.977 | 0.923 | 0.873 | 1.1 | 0.785 | 0.981 | 0.843 | 0.977 | 0.819 | 0.807
NCI-H1792 |  |  |  |  |  | 0.621 | 0.571 | 0.574 | 0.567 | 0.514 | 0.759 | 0.776 | 0.93 | 0.841 | 0.905 | 0.932 | 0.606 | 0.925 | 0.697 | 0.832
